# Measured values published in article PMC10337138 (Acta Neuropathologica Communications, 2023).
# How the values were obtained:
# Conditions in all cases: 1 mM ATP; inhibitor
# ABL1 = ABL1 (Homo sapiens, UniProt P00519)
# Experimental: (§1) Kinase selectivity panel Kinome profiling was conducted by AssayQuant Technologies (Marlboro, MA) using Sox chromophore technology and Sox-based peptide substrates developed for human kinases in a 384-well format. Compounds were tested at 1 µM in the presence of 1 mM ATP.
# CAMK2A = CAMK2A (Homo sapiens, UniProt Q9UQM7)
# Experimental: as §1
# CAMKK1 = CAMKK1 (Homo sapiens, UniProt Q8N5S9)
# Experimental: as §1
# CDK5/P25 = CDK5/P25 (Homo sapiens, UniProt Q00535)
# Experimental: as §1
# CSNK1G2/CK1G2 = CSNK1G2/CK1G2 (Homo sapiens, UniProt P78368)
# Experimental: as §1
# EIF2AK3/PEK = EIF2AK3/PEK (Homo sapiens, UniProt Q9NZJ5)
# Chain of EIF2AK3/PEK (Q9NZJ5 whole entry): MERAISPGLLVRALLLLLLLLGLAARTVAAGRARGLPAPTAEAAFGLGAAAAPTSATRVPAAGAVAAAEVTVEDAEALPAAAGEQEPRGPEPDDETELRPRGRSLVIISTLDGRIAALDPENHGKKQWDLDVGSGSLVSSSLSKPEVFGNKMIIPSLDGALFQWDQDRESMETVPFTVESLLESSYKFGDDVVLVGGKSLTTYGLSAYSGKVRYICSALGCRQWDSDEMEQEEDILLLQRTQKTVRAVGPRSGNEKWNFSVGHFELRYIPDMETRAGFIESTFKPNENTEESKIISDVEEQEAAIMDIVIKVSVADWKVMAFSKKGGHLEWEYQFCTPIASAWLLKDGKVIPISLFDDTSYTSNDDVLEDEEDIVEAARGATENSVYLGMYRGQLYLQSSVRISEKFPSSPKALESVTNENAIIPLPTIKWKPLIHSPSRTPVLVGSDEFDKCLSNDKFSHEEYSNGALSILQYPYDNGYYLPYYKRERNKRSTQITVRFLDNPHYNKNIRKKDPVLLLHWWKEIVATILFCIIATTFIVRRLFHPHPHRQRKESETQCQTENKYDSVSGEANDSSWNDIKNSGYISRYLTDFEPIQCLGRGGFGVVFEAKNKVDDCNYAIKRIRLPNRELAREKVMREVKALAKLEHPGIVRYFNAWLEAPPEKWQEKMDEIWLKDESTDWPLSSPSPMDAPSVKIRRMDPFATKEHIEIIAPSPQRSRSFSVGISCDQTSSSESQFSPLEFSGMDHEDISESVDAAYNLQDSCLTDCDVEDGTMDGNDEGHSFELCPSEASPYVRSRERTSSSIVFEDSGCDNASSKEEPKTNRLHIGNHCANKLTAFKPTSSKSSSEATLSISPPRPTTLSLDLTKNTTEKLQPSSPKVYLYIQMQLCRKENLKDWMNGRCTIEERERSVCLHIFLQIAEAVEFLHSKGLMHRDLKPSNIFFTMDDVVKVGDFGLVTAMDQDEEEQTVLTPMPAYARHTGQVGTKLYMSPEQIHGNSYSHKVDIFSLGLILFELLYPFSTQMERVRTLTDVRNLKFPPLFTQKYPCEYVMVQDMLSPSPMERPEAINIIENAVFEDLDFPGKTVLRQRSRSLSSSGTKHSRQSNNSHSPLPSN
# Experimental: as §1
# EPHA1 = EPHA1 (Homo sapiens, UniProt P21709)
# Experimental: as §1
# EPHA2 = EPHA2 (Homo sapiens, UniProt P29317)
# Experimental: as §1
# ERN2 = ERN2 (Homo sapiens, UniProt Q76MJ5)
# Experimental: as §1
# FLT4 = FLT4 (Homo sapiens, UniProt P35916)
# Experimental: as §1
# GRK1 = GRK1 (Homo sapiens, UniProt Q15835)
# Experimental: as §1
# GSK3A = GSK3A (Homo sapiens, UniProt P49840)
# Chain of GSK3A (P49840 whole entry): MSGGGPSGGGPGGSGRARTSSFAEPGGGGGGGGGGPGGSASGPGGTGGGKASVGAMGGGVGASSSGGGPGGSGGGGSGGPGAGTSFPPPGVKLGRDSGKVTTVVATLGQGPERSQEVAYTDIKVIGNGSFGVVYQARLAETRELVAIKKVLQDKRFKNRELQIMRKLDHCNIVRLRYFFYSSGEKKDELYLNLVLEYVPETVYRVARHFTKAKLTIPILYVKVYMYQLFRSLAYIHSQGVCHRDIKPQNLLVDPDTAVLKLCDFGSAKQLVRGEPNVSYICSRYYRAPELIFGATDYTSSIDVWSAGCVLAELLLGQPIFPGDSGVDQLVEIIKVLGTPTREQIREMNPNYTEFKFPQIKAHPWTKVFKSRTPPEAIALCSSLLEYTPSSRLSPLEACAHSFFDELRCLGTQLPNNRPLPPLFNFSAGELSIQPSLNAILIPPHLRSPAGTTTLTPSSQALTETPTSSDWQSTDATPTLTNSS
# Experimental: as §1
# HCK = HCK (Homo sapiens, UniProt P08631)
# Experimental: as §1
# HIPK3 = HIPK3 (Homo sapiens, UniProt Q9H422)
# Experimental: as §1
# INSR = INSR (Homo sapiens, UniProt P06213)
# Experimental: as §1
# KSR1 = KSR1 (Homo sapiens, UniProt Q8IVT5)
# Experimental: as §1
# MAP3K13 = MAP3K13 (Homo sapiens, UniProt O43283)
# Experimental: as §1
# MAPK13/P38D = MAPK13/P38D (Homo sapiens, UniProt O15264)
# Experimental: as §1
# MAPK15/ERK7 = MAPK15/ERK7 (Homo sapiens, UniProt Q8TD08)
# Experimental: as §1
# MYLK4 = MYLK4 (Homo sapiens, UniProt Q86YV6)
# Experimental: as §1
# NEK1 = NEK1 (Homo sapiens, UniProt Q96PY6)
# Experimental: as §1
# NEK11 = NEK11 (Homo sapiens, UniProt Q8NG66)
# Experimental: as §1
# PASK = PASK (Homo sapiens, UniProt Q96RG2)
# Experimental: as §1
# PDGFRA = PDGFRA (Homo sapiens, UniProt P16234)
# Chain of PDGFRA (P16234 whole entry): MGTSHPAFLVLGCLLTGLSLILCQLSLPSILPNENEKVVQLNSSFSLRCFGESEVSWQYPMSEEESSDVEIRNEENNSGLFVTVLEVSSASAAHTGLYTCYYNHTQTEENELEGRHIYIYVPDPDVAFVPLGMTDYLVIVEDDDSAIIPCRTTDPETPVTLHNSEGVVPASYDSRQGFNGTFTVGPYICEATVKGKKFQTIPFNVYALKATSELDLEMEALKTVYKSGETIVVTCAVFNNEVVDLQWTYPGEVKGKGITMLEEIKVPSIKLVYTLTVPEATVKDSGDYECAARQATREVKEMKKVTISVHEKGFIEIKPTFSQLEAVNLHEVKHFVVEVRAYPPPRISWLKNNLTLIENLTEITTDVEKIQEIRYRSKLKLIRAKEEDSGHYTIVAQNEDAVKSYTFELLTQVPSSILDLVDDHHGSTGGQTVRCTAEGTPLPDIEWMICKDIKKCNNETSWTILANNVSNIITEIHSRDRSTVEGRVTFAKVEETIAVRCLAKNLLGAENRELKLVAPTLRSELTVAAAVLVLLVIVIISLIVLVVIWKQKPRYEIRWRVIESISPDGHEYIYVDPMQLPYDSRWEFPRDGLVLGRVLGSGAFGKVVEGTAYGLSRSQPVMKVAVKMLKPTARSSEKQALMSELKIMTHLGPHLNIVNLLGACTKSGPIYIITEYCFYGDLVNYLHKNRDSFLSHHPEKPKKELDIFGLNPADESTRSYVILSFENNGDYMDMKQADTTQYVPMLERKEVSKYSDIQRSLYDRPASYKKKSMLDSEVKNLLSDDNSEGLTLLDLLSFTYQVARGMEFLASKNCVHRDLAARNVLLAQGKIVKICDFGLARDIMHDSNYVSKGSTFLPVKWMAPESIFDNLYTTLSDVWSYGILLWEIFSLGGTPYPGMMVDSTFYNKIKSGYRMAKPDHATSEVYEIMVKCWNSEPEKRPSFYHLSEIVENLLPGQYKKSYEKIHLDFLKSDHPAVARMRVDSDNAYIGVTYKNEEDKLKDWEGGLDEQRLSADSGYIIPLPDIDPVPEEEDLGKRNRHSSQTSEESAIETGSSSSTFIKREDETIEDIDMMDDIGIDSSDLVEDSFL
# Experimental: as §1
# PDGFRB = PDGFRB (Homo sapiens, UniProt P09619)
# Experimental: as §1
# PDHK2 = biological target: T1, PDHK2 (Homo sapiens, UniProt Q15119)
# T1 construct: gene PDK2
# Experimental: as §1
# PDHK3 = biological target: T2, PDHK3 (Homo sapiens, UniProt Q15120)
# T2 construct: gene PDK3
# Experimental: as §1
# PDHK4 = biological target: T3, PDHK4 (Homo sapiens, UniProt Q16654)
# T3 construct: gene PDK4
# Experimental: as §1
# PHKG2 = PHKG2 (Homo sapiens, UniProt P15735)
# Chain of PHKG2 (P15735 whole entry): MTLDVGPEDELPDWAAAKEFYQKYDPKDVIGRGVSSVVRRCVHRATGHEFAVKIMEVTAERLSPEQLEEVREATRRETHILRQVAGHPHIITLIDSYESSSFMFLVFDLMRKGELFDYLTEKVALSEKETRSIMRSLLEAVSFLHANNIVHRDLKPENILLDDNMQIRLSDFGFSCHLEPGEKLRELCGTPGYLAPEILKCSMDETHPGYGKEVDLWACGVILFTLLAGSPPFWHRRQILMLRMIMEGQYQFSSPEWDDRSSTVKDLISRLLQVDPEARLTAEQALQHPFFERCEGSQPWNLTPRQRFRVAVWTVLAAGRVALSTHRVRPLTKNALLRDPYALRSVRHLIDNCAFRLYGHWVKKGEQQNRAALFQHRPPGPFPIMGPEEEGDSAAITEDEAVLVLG
# Experimental: as §1
# PRKACA = PRKACA (Homo sapiens, UniProt P17612)
# Experimental: as §1
# PRKACB = PRKACB (Homo sapiens, UniProt P22694)
# Experimental: as §1
# PRKD1 = PRKD1 (Homo sapiens, UniProt Q15139)
# Experimental: as §1
# PTK2 = PTK2 (Homo sapiens, UniProt Q05397)
# Experimental: as §1
# RIPK2 = RIPK2 (Homo sapiens, UniProt O43353)
# Experimental: as §1
# ROS = biological target: T4, ROS (Homo sapiens, UniProt P08922)
# T4 construct: gene ROS1
# Experimental: as §1
# SIK3 = SIK3 (Homo sapiens, UniProt Q9Y2K2)
# Experimental: as §1
# SNRK = SNRK (Homo sapiens, UniProt Q9NRH2)
# Chain of SNRK (Q9NRH2 whole entry): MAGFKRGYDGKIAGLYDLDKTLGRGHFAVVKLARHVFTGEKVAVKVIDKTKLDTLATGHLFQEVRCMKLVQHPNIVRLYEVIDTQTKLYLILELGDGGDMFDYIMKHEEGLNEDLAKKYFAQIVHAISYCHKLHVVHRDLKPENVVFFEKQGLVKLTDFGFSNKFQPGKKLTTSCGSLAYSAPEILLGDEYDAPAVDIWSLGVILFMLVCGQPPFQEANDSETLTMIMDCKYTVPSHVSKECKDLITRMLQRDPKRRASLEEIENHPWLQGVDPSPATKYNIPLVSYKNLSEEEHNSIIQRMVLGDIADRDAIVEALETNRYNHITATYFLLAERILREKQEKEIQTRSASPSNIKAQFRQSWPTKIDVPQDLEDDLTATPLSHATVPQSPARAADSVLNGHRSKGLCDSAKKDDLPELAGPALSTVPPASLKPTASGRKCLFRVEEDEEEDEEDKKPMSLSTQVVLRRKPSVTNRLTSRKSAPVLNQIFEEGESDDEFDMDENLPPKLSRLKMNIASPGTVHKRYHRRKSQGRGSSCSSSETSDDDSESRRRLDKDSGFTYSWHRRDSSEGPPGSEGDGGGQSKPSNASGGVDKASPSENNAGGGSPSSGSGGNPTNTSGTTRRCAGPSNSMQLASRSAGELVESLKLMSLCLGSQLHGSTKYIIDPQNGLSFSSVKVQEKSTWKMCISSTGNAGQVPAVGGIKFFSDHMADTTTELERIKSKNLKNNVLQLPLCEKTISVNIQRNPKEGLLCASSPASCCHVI
# Experimental: as §1
# STK11/LKB1 = STK11/LKB1 (Homo sapiens, UniProt Q15831)
# Experimental: as §1
# TAOK3 = TAOK3 (Homo sapiens, UniProt Q9H2K8)
# Experimental: as §1
# Chain of ABL1 (P00519 whole entry): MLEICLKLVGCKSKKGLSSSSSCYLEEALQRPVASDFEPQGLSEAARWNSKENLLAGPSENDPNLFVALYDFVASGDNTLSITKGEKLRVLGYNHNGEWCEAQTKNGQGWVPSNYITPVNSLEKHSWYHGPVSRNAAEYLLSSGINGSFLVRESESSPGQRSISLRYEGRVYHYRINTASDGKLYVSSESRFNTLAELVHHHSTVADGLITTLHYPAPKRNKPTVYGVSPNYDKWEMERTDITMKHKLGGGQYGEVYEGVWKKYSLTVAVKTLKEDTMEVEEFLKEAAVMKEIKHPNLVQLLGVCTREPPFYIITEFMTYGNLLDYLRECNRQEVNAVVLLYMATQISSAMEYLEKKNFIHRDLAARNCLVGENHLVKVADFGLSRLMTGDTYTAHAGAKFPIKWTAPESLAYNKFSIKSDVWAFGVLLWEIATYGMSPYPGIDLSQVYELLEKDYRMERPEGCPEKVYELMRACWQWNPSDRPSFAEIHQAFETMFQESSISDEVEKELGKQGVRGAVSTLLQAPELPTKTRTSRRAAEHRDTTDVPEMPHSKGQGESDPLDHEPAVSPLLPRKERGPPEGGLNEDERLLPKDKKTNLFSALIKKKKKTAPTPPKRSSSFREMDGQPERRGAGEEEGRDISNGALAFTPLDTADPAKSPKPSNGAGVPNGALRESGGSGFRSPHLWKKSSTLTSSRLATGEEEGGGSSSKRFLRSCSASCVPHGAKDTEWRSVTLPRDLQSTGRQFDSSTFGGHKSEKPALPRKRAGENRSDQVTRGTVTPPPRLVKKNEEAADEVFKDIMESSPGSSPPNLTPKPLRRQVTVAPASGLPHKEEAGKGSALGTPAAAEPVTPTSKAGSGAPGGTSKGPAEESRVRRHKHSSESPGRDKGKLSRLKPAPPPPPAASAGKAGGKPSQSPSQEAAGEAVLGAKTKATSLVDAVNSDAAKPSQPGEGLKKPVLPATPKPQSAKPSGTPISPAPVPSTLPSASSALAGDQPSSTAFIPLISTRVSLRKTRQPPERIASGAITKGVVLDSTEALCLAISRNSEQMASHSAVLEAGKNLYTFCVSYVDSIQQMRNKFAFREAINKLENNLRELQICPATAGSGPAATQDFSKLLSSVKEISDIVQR
compound,measurement,setting,value
C=CC(=O)N1CCC[C@@H](n2nc(-c3ccc(Oc4ccccc4)cc3)c3c(N)ncnc32)C1 [Ibrutinib],"1 µM GBD00276 (ibrutinib), % inhibition",ABL1,-21.62%
same,"1 µM GBD00276 (ibrutinib), % inhibition",CAMK2A,2.188%
same,"1 µM GBD00276 (ibrutinib), % inhibition",CAMKK1,7.498%
same,"1 µM GBD00276 (ibrutinib), % inhibition",CDK5/P25,18.4%
same,"1 µM GBD00276 (ibrutinib), % inhibition",CSNK1G2/CK1G2,17.59%
same,"1 µM GBD00276 (ibrutinib), % inhibition",EIF2AK3/PEK,-3.047%
same,"1 µM GBD00276 (ibrutinib), % inhibition",EPHA1,10.7%
same,"1 µM GBD00276 (ibrutinib), % inhibition",EPHA2,9.007%
same,"1 µM GBD00276 (ibrutinib), % inhibition",ERN2,3.601%
same,"1 µM GBD00276 (ibrutinib), % inhibition",FLT4,38.81%
same,"1 µM GBD00276 (ibrutinib), % inhibition",GRK1,10.14%
same,"1 µM GBD00276 (ibrutinib), % inhibition",GSK3A,12.02%
same,"1 µM GBD00276 (ibrutinib), % inhibition",HCK,42.82%
same,"1 µM GBD00276 (ibrutinib), % inhibition",HIPK3,-0.6618%
same,"1 µM GBD00276 (ibrutinib), % inhibition",INSR,-2.978%
same,"1 µM GBD00276 (ibrutinib), % inhibition",KSR1,8.4%
same,"1 µM GBD00276 (ibrutinib), % inhibition",MAP3K13,-13.52%
same,"1 µM GBD00276 (ibrutinib), % inhibition",MAPK13/P38D,0.9944%
same,"1 µM GBD00276 (ibrutinib), % inhibition",MAPK15/ERK7,-6.367%
same,"1 µM GBD00276 (ibrutinib), % inhibition",MYLK4,6.189%
same,"1 µM GBD00276 (ibrutinib), % inhibition",NEK1,-6.252%
same,"1 µM GBD00276 (ibrutinib), % inhibition",NEK11,-9.805%
same,"1 µM GBD00276 (ibrutinib), % inhibition",PASK,16.95%
same,"1 µM GBD00276 (ibrutinib), % inhibition",PDGFRA,34.54%
same,"1 µM GBD00276 (ibrutinib), % inhibition",PDGFRB,19.79%
same,"1 µM GBD00276 (ibrutinib), % inhibition",PDHK2,7.038%
same,"1 µM GBD00276 (ibrutinib), % inhibition",PDHK3,2.509%
same,"1 µM GBD00276 (ibrutinib), % inhibition",PDHK4,-54.44%
same,"1 µM GBD00276 (ibrutinib), % inhibition",PHKG2,1.522%
same,"1 µM GBD00276 (ibrutinib), % inhibition",PRKACA,-16.42%
same,"1 µM GBD00276 (ibrutinib), % inhibition",PRKACB,-25.42%
same,"1 µM GBD00276 (ibrutinib), % inhibition",PRKD1,-11.81%
same,"1 µM GBD00276 (ibrutinib), % inhibition",PTK2,-4.777%
same,"1 µM GBD00276 (ibrutinib), % inhibition",RIPK2,98.43%
same,"1 µM GBD00276 (ibrutinib), % inhibition",ROS,2.485%
same,"1 µM GBD00276 (ibrutinib), % inhibition",SIK3,-15.95%
same,"1 µM GBD00276 (ibrutinib), % inhibition",SNRK,6.19%
same,"1 µM GBD00276 (ibrutinib), % inhibition",STK11/LKB1,-2.74%
same,"1 µM GBD00276 (ibrutinib), % inhibition",TAOK3,9.158%
